Test results taken from US20180325151A1, “METHOD OF PRODUCING INSTANT GINSENG CHICKEN SOUP PRODUCT” (HARIM CORPORATION, priority 2017, published 2018).

Columns and labels:
total number of bacteria = test: Microorganism growth inhibition: total number of bacteria on plate count agar; format: cell-based; conditions: boiled soup chicken dipped 30 seconds in solution, stored at 25° C.
Method: (§1) A chicken in instant ginseng chicken soup (product of Harim) was boiled, washed twice with cold water, and then dehydrated for 1 minute. 10 g of boiled instant ginseng chicken soup was dipped in 100 ml of solution for 30 seconds, dehydrated for 30 seconds on a strainer, held in a petri dish, and then stored at 25° C. For counting the total number of bacteria, the number of colonies resulting from culturing for 48 hours at 37° C. using a plate count agar was counted and indicated with colony forming unit (CFU)/ml. For counting the number of colon bacteria, the experiment was conducted in the same way for counting the total number of bacteria using a Chromocult (merck) medium. In this case, distilled water as a control group and (F)rhodinic acid were used.

colon bacteria = test: Microorganism growth inhibition: number of colon bacteria on Chromocult medium; format: cell-based; conditions: time 24 (hours); stored at 25° C.; ND = Not observed
Method: as §1

CC(C)=CCCC(C)CC(=O)O (centres unmarked) [F (rhodinic acid), rhodinic acid]
Total number of bacteria (total number of bacteria; time 0): 6.7 × 10^2 CFU/ml | Total number of bacteria (total number of bacteria; time 18): 10 × 10^5 CFU/ml | Total number of bacteria (total number of bacteria; time 24 (hours)): 8.9 × 10^6 CFU/ml | Total number of bacteria (total number of bacteria; time 24 (hours), listed as (F)rhodinic acid): up to 10^6 CFU/ml | Number of colon bacteria (colon bacteria): no colon bacteria were detected
